{
  "source": "DBAASP",
  "experiment_in_all_cases": "≥ marks a high value that may be exact or a test limit, other limits are often not marked, values filed in µg/mL are converted to µM",
  "key": {"[1]": {"system": "Candida albicans ATCC 90028"}, "[2]": {"system": "Escherichia coli ATCC 25922"}, "[3]": {"system": "Pseudomonas aeruginosa ATCC 27853"}, "[4]": {"system": "Staphylococcus aureus ATCC 29213"}, "[5]": {"system": "Enterococcus faecalis ATCC 29212"}, "[6]": {"system": "Candida albicans ATCC 10231"}, "Escherichia coli UB1005": {"system": "Escherichia coli UB1005"}, "[7]": {"system": "Pseudomonas aeruginosa PAO1"}, "[8]": {"system": "Staphylococcus aureus ATCC 25923"}, "Escherichia coli": {"system": "Escherichia coli"}, "Pseudomonas aeruginosa": {"system": "Pseudomonas aeruginosa"}, "Staphylococcus aureus": {"system": "Staphylococcus aureus"}, "[9]": {"system": "Staphylococcus epidermidis ATCC 12228"}, "[10]": {"system": "Salmonella typhimurium KCTC 1926"}},
  "data": [
    {"smiles": "CC[C@H](C)[C@H](NC(=O)[C@H](CCCN=C(N)N)NC(=O)[C@H](CCC(N)=O)NC(=O)[C@H](C)NC(=O)[C@H](C)NC(=O)[C@H](CCCN=C(N)N)NC(=O)[C@@H](N)CCCCN)C(=O)N[C@@H](CCCCN)C(=O)N[C@@H](C)C(=O)N[C@@H](Cc1ccccc1)C(=O)N[C@@H](CC(C)C)C(=O)N[C@@H](CCCN=C(N)N)C(=O)O", "note": "[KRAAQRIKAFLR]", "values": [
      {"measurement": "MIC", "setting": "[1]", "value": "≥ 40", "unit": "µM"},
      {"measurement": "MIC", "setting": "[2]", "value": 2.5, "unit": "µM"},
      {"measurement": "MIC", "setting": "[3]", "value": 5, "unit": "µM"},
      {"measurement": "MIC", "setting": "[4]", "value": 10, "unit": "µM"}
    ]},
    {"smiles": "CC[C@H](C)[C@H](NC(=O)[C@H](CCCN=C(N)N)NC(=O)[C@H](CCC(N)=O)NC(=O)[C@@H](NC(=O)[C@@H](NC(=O)[C@H](CCCN=C(N)N)NC(=O)[C@@H](N)CCCCN)[C@@H](C)CC)C(C)C)C(=O)N[C@@H](CCCCN)C(=O)N[C@@H](CC(=O)O)C(=O)N[C@@H](Cc1ccccc1)C(=O)N[C@@H](CC(C)C)C(=O)N[C@@H](CCCCN)C(=O)O", "note": "[KRIVQRIKDFLK]", "values": [
      {"measurement": "MIC", "setting": "[1]", "value": 10, "unit": "µM"},
      {"measurement": "MIC", "setting": "[2]", "value": 5, "unit": "µM"},
      {"measurement": "MIC", "setting": "[3]", "value": 5, "unit": "µM"},
      {"measurement": "MIC", "setting": "[4]", "value": 10, "unit": "µM"}
    ]},
    {"smiles": "CSCC[C@H](NC(=O)[C@H](CCCN=C(N)N)NC(=O)[C@H](Cc1c[nH]c2ccccc12)NC(=O)[C@H](CCC(N)=O)NC(=O)[C@H](Cc1c[nH]c2ccccc12)NC(=O)[C@H](CCCN=C(N)N)NC(=O)[C@H](CCCN=C(N)N)NC(=O)[C@H](C)NC(=O)[C@H](CCCCN)NC(=O)[C@@H](N)Cc1ccccc1)C(=O)N[C@@H](CCCCN)C(=O)N[C@@H](CCCCN)C(=O)O", "note": "[FKARRWQWRMKK]", "values": [
      {"measurement": "MIC", "setting": "[5]", "value": 58.2, "unit": "µM"},
      {"measurement": "MIC", "setting": "[2]", "value": 116, "unit": "µM"}
    ]},
    {"smiles": "CC(C)C[C@H](NC(=O)[C@H](CCCCN)NC(=O)[C@H](CCCCN)NC(=O)[C@H](CC(C)C)NC(=O)[C@H](CC(C)C)NC(=O)[C@H](CCCCN)NC(=O)[C@H](CCCCN)NC(=O)[C@H](CC(C)C)NC(=O)[C@H](CCCCN)NC(=O)[C@H](CCCCN)NC(=O)[C@H](CC(C)C)NC(=O)[C@H](CC(C)C)NC(=O)[C@H](CCCCN)NC(=O)[C@H](CCCCN)NC(=O)[C@H](CC(C)C)NC(=O)[C@H](CC(C)C)NC(=O)[C@H](CCCCN)NC(=O)[C@@H](N)Cc1ccc(O)cc1)C(N)=O", "note": "[YKLLKKLLKKLKKLLKKL]", "values": [
      {"measurement": "MIC", "setting": "[6]", "value": 27.9, "unit": "µM"},
      {"measurement": "MIC", "setting": "[3]", "value": 6.31, "unit": "µM"},
      {"measurement": "MIC", "setting": "[4]", "value": 18.1, "unit": "µM"}
    ]},
    {"smiles": "CC[C@H](C)[C@H](NC(=O)[C@H](CCCN=C(N)N)NC(=O)[C@H](CCCN=C(N)N)NC(=O)[C@@H]1CCCN1C(=O)[C@@H]1CCCN1C(=O)[C@H](CCCN=C(N)N)NC(=O)[C@@H]1CCCN1C(=O)[C@H](CCCN=C(N)N)NC(=O)[C@@H]1CCCN1C(=O)[C@H](CC(C)C)NC(=O)[C@H](Cc1ccc(O)cc1)NC(=O)[C@@H]1CCCN1C(=O)[C@@H]1CCCN1C(=O)[C@H](CCCCN)NC(=O)[C@@H]1CCCN1C(=O)[C@@H](N)C(C)C)C(=O)N[C@@H](Cc1ccc(O)cc1)C(=O)N[C@@H](CC(N)=O)C(=O)N[C@@H](CCCN=C(N)N)C(N)=O", "note": "[VPKPPYLPRPRPPRRIYNR]", "values": [
      {"measurement": "MIC", "setting": "Escherichia coli UB1005", "value": 2.11, "unit": "µM"},
      {"measurement": "MIC", "setting": "[7]", "value": 19.1, "unit": "µM"},
      {"measurement": "MIC", "setting": "[8]", "value": 3.37, "unit": "µM"}
    ]},
    {"smiles": "CC[C@H](C)[C@H](NC(=O)CN)C(=O)NCC(=O)N[C@@H](CCCCN)C(=O)N[C@@H](Cc1ccccc1)C(=O)N[C@H](C(=O)N[C@@H](Cc1cnc[nH]1)C(=O)N[C@@H](CO)C(=O)N[C@H](C(=O)N[C@@H](CCCCN)C(=O)N[C@@H](CCCCN)C(=O)N[C@@H](Cc1c[nH]c2ccccc12)C(=O)NCC(=O)N[C@@H](CCCCN)C(=O)N[C@H](C(=O)N[C@@H](Cc1ccccc1)C(=O)N[C@H](C(=O)NCC(=O)N[C@@H](CCC(=O)O)C(=O)N[C@H](C(=O)N[C@@H](CCSC)C(=O)N[C@@H](CC(N)=O)C(=O)N[C@@H](CO)C(N)=O)[C@@H](C)CC)[C@@H](C)CC)[C@@H](C)O)C(C)C)[C@@H](C)CC", "note": "[GIGKFIHSVKKWGKTFIGEIMNS]", "values": [
      {"measurement": "MIC", "setting": "Escherichia coli", "value": 2.3, "unit": "µM"},
      {"measurement": "MIC", "setting": "Pseudomonas aeruginosa", "value": 18, "unit": "µM"},
      {"measurement": "MIC", "setting": "Staphylococcus aureus", "value": 18, "unit": "µM"}
    ]},
    {"smiles": "CC[C@H](C)[C@H](NC(=O)CN)C(=O)NCC(=O)N[C@@H](C)C(=O)N[C@H](C(=O)N[C@@H](CC(C)C)C(=O)N[C@@H](CCCCN)C(=O)N[C@H](C(=O)N[C@@H](CC(C)C)C(=O)N[C@H](C(=O)N[C@H](C(=O)NCC(=O)N[C@@H](CC(C)C)C(=O)N1CCC[C@H]1C(=O)N[C@@H](C)C(=O)N[C@@H](CC(C)C)C(=O)N[C@H](C(=O)N[C@@H](CCCCN)C(=O)N[C@@H](CCCN=C(N)N)C(=O)N[C@@H](CCCCN)C(=O)N[C@@H](CCCN=C(N)N)C(=O)N[C@@H](CCC(N)=O)C(=O)N[C@@H](CCC(N)=O)C(=O)O)[C@@H](C)CC)[C@@H](C)O)[C@@H](C)O)C(C)C)C(C)C", "note": "[GIGAVLKVLTTGLPALIKRKRQQ]", "values": [
      {"measurement": "MIC", "setting": "[2]", "value": 1.02, "unit": "µM"},
      {"measurement": "MIC", "setting": "Escherichia coli", "value": 0.359, "unit": "µM"},
      {"measurement": "MIC", "setting": "[3]", "value": 2.03, "unit": "µM"},
      {"measurement": "MIC", "setting": "Pseudomonas aeruginosa", "value": 1.44, "unit": "µM"},
      {"measurement": "MIC", "setting": "[8]", "value": 0.0508, "unit": "µM"}
    ]},
    {"smiles": "CC[C@H](C)[C@H](N)C(=O)N[C@@H](Cc1c[nH]c2ccccc12)C(=O)N[C@@H](CCCN=C(N)N)C(=O)N[C@H](C(=O)N[C@@H](Cc1ccccc1)C(=O)N[C@@H](CCCN=C(N)N)C(N)=O)[C@@H](C)CC", "note": "[IWRIFR]", "values": [
      {"measurement": "MIC", "setting": "[2]", "value": 128, "unit": "µM"},
      {"measurement": "MIC", "setting": "[3]", "value": 128, "unit": "µM"},
      {"measurement": "MIC", "setting": "[4]", "value": 128, "unit": "µM"},
      {"measurement": "MIC", "setting": "[9]", "value": 64, "unit": "µM"}
    ]},
    {"smiles": "CC(C)C[C@H](NC(=O)[C@H](C)NC(=O)[C@H](CC(C)C)NC(=O)[C@@H](N)CCCCN)C(=O)N[C@@H](CCCCN)C(=O)N[C@@H](C)C(=O)N[C@@H](C)C(=O)N[C@@H](C)C(=O)N[C@@H](CCCCN)C(=O)N[C@@H](C)C(=O)N[C@@H](Cc1c[nH]c2ccccc12)C(=O)N[C@@H](CCCCN)C(=O)N[C@@H](C)C(=O)N[C@@H](C)C(=O)N[C@@H](C)C(=O)N[C@@H](CCCCN)C(=O)N[C@@H](C)C(=O)N[C@@H](C)C(N)=O", "note": "[KLALKAAAKAWKAAAKAA]", "values": [
      {"measurement": "MIC", "setting": "Escherichia coli", "value": 91, "unit": "µM"},
      {"measurement": "MIC", "setting": "Pseudomonas aeruginosa", "value": "> 91", "unit": "µM"},
      {"measurement": "MIC", "setting": "Staphylococcus aureus", "value": "> 91", "unit": "µM"}
    ]},
    {"smiles": "CC(C)C[C@H](NC(=O)[C@H](CCCCN)NC(=O)[C@H](Cc1ccccc1)NC(=O)[C@H](CC(C)C)NC(=O)[C@H](CC(C)C)NC(=O)CNC(=O)[C@H](CCCCN)NC(=O)[C@H](CC(C)C)NC(=O)[C@H](CCCCN)NC(=O)[C@@H]1CCCN1C(=O)[C@H](CC(C)C)NC(=O)[C@H](CC(C)C)NC(=O)[C@H](CC(C)C)NC(=O)[C@H](CCCCN)NC(=O)[C@H](CC(C)C)NC(=O)[C@H](CC(C)C)NC(=O)[C@H](CCCCN)NC(=O)[C@@H](N)Cc1ccc(O)cc1)C(N)=O", "note": "[YKLLKLLLPKLKGLLFKL]", "values": [
      {"measurement": "MIC", "setting": "[6]", "value": 69.6, "unit": "µM"},
      {"measurement": "MIC", "setting": "[3]", "value": 3.96, "unit": "µM"},
      {"measurement": "MIC", "setting": "[4]", "value": 1.14, "unit": "µM"}
    ]},
    {"smiles": "CC[C@H](C)[C@H](NC(=O)[C@@H](NC(=O)[C@@H](NC(=O)[C@H](CCCN=C(N)N)NC(=O)[C@@H](NC(=O)[C@@H](NC(=O)[C@H](CC(C)C)NC(=O)[C@@H]1CCCN1C(=O)[C@H](Cc1c[nH]c2ccccc12)NC(=O)[C@@H](NC(=O)[C@H](CCCN=C(N)N)NC(=O)[C@H](CCCCN)NC(=O)[C@@H](NC(=O)[C@@H](N)CCCN=C(N)N)C(C)C)C(C)C)C(C)C)[C@@H](C)CC)[C@@H](C)O)C(C)C)C(=O)N[C@@H](C)C(=O)NCC(=O)N[C@@H](Cc1ccc(O)cc1)C(=O)N[C@@H](CC(N)=O)C(=O)N[C@@H](CC(C)C)C(=O)O", "note": "[RVKRVWPLVIRTVIAGYNL]", "values": [
      {"measurement": "MIC", "setting": "[10]", "value": "≥ 32", "unit": "µM"}
    ]},
    {"smiles": "CC[C@H](C)[C@H](NC(=O)[C@H](CCCN=C(N)N)NC(=O)[C@H](CCCN=C(N)N)NC(=O)[C@@H]1CCCN1C(=O)[C@H](Cc1c[nH]c2ccccc12)NC(=O)[C@H](CCCN=C(N)N)NC(=O)[C@@H]1CCCN1C(=O)[C@H](CCCN=C(N)N)NC(=O)[C@@H]1CCCN1C(=O)[C@H](CC(C)C)NC(=O)[C@H](Cc1ccc(O)cc1)NC(=O)[C@@H]1CCCN1C(=O)[C@@H]1CCCN1C(=O)[C@H](CCCCN)NC(=O)[C@H](CCCN=C(N)N)NC(=O)[C@@H](N)C(C)C)C(=O)N[C@@H](Cc1ccc(O)cc1)C(=O)N[C@@H](CC(N)=O)C(=O)N[C@@H](CCCN=C(N)N)C(N)=O", "note": "[VRKPPYLPRPRWPRRIYNR]", "values": [
      {"measurement": "MIC", "setting": "Escherichia coli UB1005", "value": 0.516, "unit": "µM"},
      {"measurement": "MIC", "setting": "[7]", "value": 2.24, "unit": "µM"},
      {"measurement": "MIC", "setting": "[8]", "value": 0.198, "unit": "µM"}
    ]}
  ]
}
